Data: ChEMBL document CHEMBL5512638, “Novel pyrrole based CB2 agonists: New insights on CB2 receptor role in regulating neurotransmitters' tone” (Eur J Med Chem, 2024)

Experiments:
Cannabinoid receptor 2 [1] = target: T1, Cannabinoid receptor 2 (Homo sapiens, UniProt P34972); assay: Displacement of [3H]CP55940 from recombinant human CB2 receptor expressed in HEK293 cell membrane assessed as inhibition constant incubated for 90 mins by competition binding assay; assay type: cell membranes
Cannabinoid receptor 1 [2] = target: T2, Cannabinoid receptor 1 (Homo sapiens, UniProt P21554); assay: Displacement of [3H]CP55940 from recombinant human CB1 receptor expressed in HEK293 cell membrane incubated for 90 mins by competition binding assay; assay type: cell membranes
Cannabinoid receptor 1 [3] = target: T2, Cannabinoid receptor 1; assay: Displacement of [3H]CP55940 from recombinant human CB1 receptor expressed in HEK293 cell membrane assessed as inhibition constant incubated for 90 mins by competition binding assay; assay type: cell membranes
Cannabinoid receptor 2 [4] = target: T1, Cannabinoid receptor 2; assay: Displacement of [3H]CP55940 from recombinant human CB2 receptor expressed in HEK293 cell membrane incubated for 90 mins by competition binding assay; assay type: cell membranes
Mus musculus [5] = assay: (§1) Cognitive enhancing activity in scopolamine induced amnesia male C57/BL6J mouse model assessed as latency time to enter novel arm at 1 mg/kg, ip preadministered with compound for 10 mins followed by scopolamine administration for 30 mins and measured after 30 mins by Y-maze test (reference value: 21.93 +/- 0.78 sec); assay type: functional; details: time 70 min, 1.167 h
Mus musculus [6] = assay: as §1, with “as” for “as latency time to enter”, “arm exploration time” for “arm”, “9.28” for “21.93”, “1.03” for “0.78”; assay type: functional; details: time 70 min, 1.167 h

T2 sequence (P21554 whole entry): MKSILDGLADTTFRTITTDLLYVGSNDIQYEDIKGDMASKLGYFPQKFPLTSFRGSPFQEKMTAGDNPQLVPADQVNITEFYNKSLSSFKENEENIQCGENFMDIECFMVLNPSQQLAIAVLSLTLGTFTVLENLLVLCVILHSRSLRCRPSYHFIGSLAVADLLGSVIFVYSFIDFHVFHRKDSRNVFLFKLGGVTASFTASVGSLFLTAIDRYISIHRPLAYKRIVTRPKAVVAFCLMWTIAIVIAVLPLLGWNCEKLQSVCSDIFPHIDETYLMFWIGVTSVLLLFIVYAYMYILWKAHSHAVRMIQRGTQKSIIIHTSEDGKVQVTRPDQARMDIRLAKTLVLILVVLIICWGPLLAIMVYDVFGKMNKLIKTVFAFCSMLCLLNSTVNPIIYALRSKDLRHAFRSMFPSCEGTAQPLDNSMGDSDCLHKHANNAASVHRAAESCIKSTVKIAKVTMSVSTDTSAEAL
T1 sequence (P34972 whole entry): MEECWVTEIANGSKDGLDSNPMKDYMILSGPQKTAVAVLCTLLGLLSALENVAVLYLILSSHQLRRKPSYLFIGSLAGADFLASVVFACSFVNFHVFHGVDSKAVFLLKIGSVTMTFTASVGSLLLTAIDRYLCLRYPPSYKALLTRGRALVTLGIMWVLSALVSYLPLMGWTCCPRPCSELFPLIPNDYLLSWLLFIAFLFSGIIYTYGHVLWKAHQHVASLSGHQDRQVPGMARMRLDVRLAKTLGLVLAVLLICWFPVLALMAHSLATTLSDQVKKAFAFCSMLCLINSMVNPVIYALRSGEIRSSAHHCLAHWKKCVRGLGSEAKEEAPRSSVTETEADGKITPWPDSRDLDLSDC

Row | SMILES | Ki (Cannabinoid receptor 2 [1]; read-out: Ki) | IC50 (Cannabinoid receptor 1 [2]; read-out: IC50) | Ki (Cannabinoid receptor 1 [3]; read-out: Ki) | IC50 (Cannabinoid receptor 2 [4]; read-out: IC50) | Time (Mus musculus [5]) | Ki (Cannabinoid receptor 2 [1]; hek293) | IC50 (Cannabinoid receptor 1 [2]; hek293) | Ki (Cannabinoid receptor 1 [3]; hek293) | IC50 (Cannabinoid receptor 2 [4]; hek293) | Time (Mus musculus [6])
1 | O=C(c1ccccc1Cl)c1cccn1Cc1ccc(O)cc1 | > 10 µM | > 10 µM | > 10 µM | > 10 µM |  |  |  |  |  | 
2 | O=C(OCCCCn1cccc1C(=O)c1ccccc1Cl)c1ccccc1 | > 10 µM | > 10 µM | > 10 µM | > 10 µM |  |  |  |  |  | 
3 | O=C(O)CC(=O)N[C@@H](Cc1c[nH]c2ccccc12)C(=O)Nc1ccc(O)cc1 | > 10 µM | > 10 µM | > 10 µM | > 10 µM |  |  |  |  |  | 
4 | Cc1ccc(S(=O)(=O)n2cccc2C(=O)c2ccccc2)cc1 | > 10 µM | > 10 µM | > 10 µM | > 10 µM |  |  |  |  |  | 
5 | COc1ccc(C(=O)c2c(C)n(CCN3CCOCC3)c3cc(I)ccc23)cc1 |  |  |  |  | 9.28 s |  |  |  |  | 
6 | O=C(Nc1cccc(CO)c1)c1cccn1Cc1ccc(F)cc1 | 0.25 µM | > 10 µM | > 10 µM | 1.59 µM |  |  |  |  |  | 
7 | COC(=O)CCCn1cccc1C(=O)c1ccccc1Cl | > 10 µM | > 10 µM | > 10 µM | > 10 µM |  |  |  |  |  | 
8 | O=C(NCc1cccc(O)c1)c1cccn1Cc1ccc(F)cc1 | > 10 µM | > 10 µM | > 10 µM | > 10 µM |  |  |  |  |  | 
9 | O=C(NCCO)[C@@H]1Cc2ccccc2CN1C(=O)c1ccc(O)cc1 | > 10 µM | > 10 µM | > 10 µM | > 10 µM |  |  |  |  |  | 
10 | CCCCCNC(=O)c1cccn1Cc1ccc(F)cc1 | > 10 µM | > 10 µM | > 10 µM | > 10 µM |  |  |  |  |  | 
11 | O=C(CCO)N[C@@H](Cc1ccc(O)cc1)C(=O)Nc1ccc(O)cc1 | > 10 µM | > 10 µM | > 10 µM | > 10 µM |  |  |  |  |  | 
12 | CC(=O)NCCCCn1cccc1C(=O)c1ccccc1Cl | > 10 µM | > 10 µM | > 10 µM | > 10 µM |  |  |  |  |  | 
13 | CC(=O)Oc1ccc(Cn2cccc2C(=O)c2ccccc2Cl)cc1 | > 10 µM | > 10 µM | > 10 µM | > 10 µM |  |  |  |  |  | 
14 | O=C(c1ccccc1Cl)c1cccn1Cc1cccc(O)c1 | > 10 µM | > 10 µM | > 10 µM | > 10 µM |  |  |  |  |  | 
15 | O=C(CCO)N[C@@H](Cc1c[nH]c2ccccc12)C(=O)Nc1ccc(O)cc1 | > 10 µM | > 10 µM | > 10 µM | > 10 µM |  |  |  |  |  | 
16 | Cc1ccc(S(=O)(=O)n2cccc2C(=O)c2ccc(Cl)cc2)cc1 |  |  |  |  |  | Not Determined(Insoluble) | Not Determined(Insoluble) | Not Determined(Insoluble) | Not Determined(Insoluble) | 
17 | O=C(CO)Nc1cccc(NC(=O)c2cccnc2)c1 | > 10 µM | > 10 µM | > 10 µM | > 10 µM |  |  |  |  |  | 
18 | O=C(O)CCCn1cccc1C(=O)c1ccccc1Cl | > 10 µM | > 10 µM | > 10 µM | > 10 µM |  |  |  |  |  | 
19 | O=C(c1ccc(Cl)cc1)c1cccn1Cc1ccco1 | > 10 µM | > 10 µM | > 10 µM | > 10 µM |  |  |  |  |  | 
20 | Cc1c(C(=O)NN2CCCCC2)nn(-c2ccc(Cl)cc2Cl)c1-c1ccc(I)cc1 |  |  |  |  | 11.01 s |  |  |  |  | 28.6 s
21 | O=C(Nc1ccc(O)cc1)[C@@H]1Cc2ccccc2CN1C(=O)CCO | > 10 µM | > 10 µM | > 10 µM | > 10 µM |  |  |  |  |  | 
